Source: the METLIN SMRT retention time set (Domingo-Almenara et al. 2019)

Experiment: gradient 5% acetonitrile 3 min, to 50% in 2 min, to 85% in 15 min, held 3 min, 100 µL/min
Details: column: Zorbax Extend-C18 2.1 x 50 mm; eluents: water / acetonitrile, 0.1% formic acid
In short: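 Retention times come from adduct peaks that were picked computationally and then checked by hand. The standards, pure and pooled in mixtures of ~100 molecules, were run on a Zorbax Extend-C18 column (2.1 × 50 mm, 1.8 μm) at 100 μL/min with water and acetonitrile, each with 0.1% formic acid. Detection was by quadrupole time-of-flight mass spectrometry in positive and negative ionization mode, with a dead volume of 40 μL and a dwell volume of 900 μL.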

Structure (SMILES)	RP-LC retention time
O=C(Nc1ccc2c(c1)OCO2)NC1CCCC(OC(=O)Nc2ccc(F)cc2)C1 (stereo unspecified)	825 s
O=C(NCc1ccncc1)c1ccc(-c2ccsc2)nc1	589 s
COc1ccc(C(C)NC(=O)c2sc3ncccc3c2-n2cccc2)cc1OC (stereo unspecified)	929 s
COc1ccccc1-c1noc(C2CCCN2C(=O)NCc2ccco2)n1 (stereo unspecified)	761 s
Cc1cccc(Cn2nc3ccc(S(=O)(=O)N4CCC(C)CC4)cn3c2=O)c1	1040 s
O=C(CN1C(=O)CN(C(=O)NCc2ccccc2)c2ccccc21)NCCc1ccco1	803 s
O=C(CSc1ccc(F)cc1)N1CCCC(c2nnc(-c3ccc4c(c3)OCO4)o2)C1 (stereo unspecified)	810 s
CC1CCN(C(=O)CCNc2c(-c3ccc(F)cc3)nc3cnccn23)CC1	794 s
OC1(c2ccccc2)CN(c2ccccc2)C2=[N+]1CCS2 (stereo unspecified)	551 s
CCn1c(C(=O)Nc2cc(Cl)ccc2C)cc2sc(Cl)cc21	1310 s
O=C(NCCc1noc(C2CC2)n1)c1ccco1	664 s
Cc1cccc(Cl)c1NC(=O)CN1C(=O)NC2(CCC(C)CC2)C1=O (stereo unspecified)	805 s
Cc1ccc(NC(=O)Cn2ccc3sccc3c2=O)c(Cl)c1	802 s
CCCc1noc(-c2ccnc(-n3cnc(C(=O)N4CCOCC4)c3)c2)n1	747 s
Cc1nn(-c2ccccc2)c2c1N(CC(=O)NCCC(C)C)C(=O)CS2	821 s
CCc1ccc(CNC(=O)CN2C(=O)C3CCCCN3c3ccc(S(=O)(=O)N(C)C)cc32)cc1 (stereo unspecified)	975 s
CN(CCc1noc(-c2ccc(Cl)cc2)n1)C(=O)c1ccc(C#N)cc1	908 s
Cc1cccn2c(Nc3ccc4c(c3)OCCO4)c(-c3cccc(Cl)c3)nc12	727 s
CCOC(=O)COc1ccccc1C1C(C(=O)OC)=C(C)NC2=C1C(=O)c1ccccc12 (stereo unspecified)	957 s
CC(=O)N1CCC(C(=O)N2CCCCCCNC(=O)[C@@H]3CCCC[C@@H]32)CC1	657 s
Cn1c(=O)c2cc(C(=O)Nc3ccc(F)c(F)c3)cnc2n(-c2ccccc2)c1=O	937 s
COc1ccccc1N1CCN(c2cc(SCC(=O)Nc3cccc(C#N)c3)ncn2)CC1	895 s

Structure (SMILES)	RP-LC retention time
Cc1sc(-c2noc(C3CC3)n2)cc1S(=O)(=O)N1CCC(C(=O)NCc2cccs2)CC1	983 s
COC(=O)c1cc2c(=O)n(-c3cccc(Cl)c3)ccc2nc1C	878 s
COc1ccc(Cn2c(C)c(CNCc3ccccn3)c(C(=O)O)c2C)cc1	690 s
CCC(C)(C)NS(=O)(=O)c1ccc(-c2c(C)noc2C)cc1	939 s
CCOC(=O)c1cc(C)nc2c1c(=O)n(Cc1ccc(OC)cc1)c(=O)n2C	1020 s
Cc1cccc(NC(=O)Nc2ccc3nnc(C)n3c2)c1	747 s
O=C1CCCN1CCCN(CC(=O)N1CCNCC1)C(=O)c1ccc(Cl)cc1	586 s
CC(=O)CC(c1ccccc1)C1C(=O)Oc2ccccc2C1=O (stereo unspecified)	1000 s
Cc1ccc2[nH]c(=O)c(CCC(=O)NCCCN3CCCC(C)C3)cc2c1 (stereo unspecified)	594 s
CCOC(=O)c1cc(S(=O)(=O)N2CCCC2C(=O)Nc2cc(Cl)c(OC)cc2OC)cn1C (stereo unspecified)	1010 s
CC1CCCN(c2nn(CC(=O)Nc3ccc4c(c3)OCCO4)c(=O)c3ccccc23)C1 (stereo unspecified)	1030 s
COc1cccc(CNC(=O)C2(C)CCCN(C(=O)Nc3ccccc3C)C2)c1 (stereo unspecified)	895 s
COc1ccc(-c2cn3ccn(-c4ccc(F)c(Cl)c4)c(=O)c3n2)cc1OC	804 s
O=c1c(NCCc2ccccn2)nc2ccncc2n1Cc1ccccc1	551 s
FC(F)(F)Oc1ccc(CN2CCN(c3cnn4cnnc4c3)CC2)cc1	611 s
Cc1cc2c(cc1CNC(=O)Cn1cc(C(=O)c3ccco3)c3ccccc31)OCCCO2	837 s
Cc1ccc(-c2ncc(C(=O)Nc3cccc(Br)c3)c(-c3ccncc3)n2)cc1	1050 s
O=C(NCC1CCOCC1)c1cccc(Br)c1	733 s
Cc1nc2c(C(=O)N3CCN(c4ccccn4)CC3)cnn2c(C)c1Cc1ccccc1Cl	697 s
COCCN(CC(=O)N1CCc2sccc2C1COc1ccccc1F)C(=O)C(C)C (stereo unspecified)	912 s
O=C(CSc1cccc2cccnc12)NCCc1ccc(Cl)cc1	786 s
Cc1ccc(S(=O)(=O)Nc2ccc3c(c2)CCC(=O)N3CC(C)C)cc1Cl	994 s

Structure (SMILES)	RP-LC retention time
Cc1cnc(C(=O)NC2C[C@H]3CC[C@@H](C2)N3C(=O)Cc2c(C)noc2C)cn1 (stereo partly specified)	611 s
Cc1ccc(NC(=O)C(C)C2CCN(C(=O)Nc3ccc(Cl)cc3)CC2)cc1 (stereo unspecified)	963 s
Cc1ccccc1NC(=O)N1CCC(CCN)CC1	580 s
CCNC(=O)c1ccc(-n2cccc2)nc1	708 s
Cc1nc(-c2ccc(N3CCN(C(=O)c4cccs4)CC3)nc2)sc1C	823 s
O=C(NCc1cccc(F)c1)N1CCC(n2c(-c3ccco3)nc3cccnc32)C1 (stereo unspecified)	774 s
Cc1cc(C)cc(NC(=O)NCCc2c(C)nn(C)c2C)c1	664 s
CCNS(=O)(=O)c1cccc(-c2nc(-c3ccc(C)cc3)no2)c1	1100 s
Cc1sc(-c2noc(C(C)C)n2)cc1S(=O)(=O)N1CCC(C(=O)NCc2cccs2)CC1	1030 s
Cc1ccc(C)c(NC(=O)Nc2ccc3nncn3c2)c1	747 s
CCc1nn2c(CNC(=O)Cc3ccc(OC)cc3Cl)c(C)nc2s1	670 s
COc1ccc(S(=O)(=O)N2CCC3(CC2)c2nccn2CCN3C)cc1OC	610 s
COCCNC(=O)c1ccc2c(c1)CCCN2S(=O)(=O)c1ccc(Cl)cc1	885 s
CS(=O)(=O)N(C1CCOCC1)C1CN(C(=O)c2cc3ccccc3[nH]2)C1	685 s
COc1ccc(-c2c(C(=O)NCc3cccs3)nc3ccccn23)cc1	828 s
Cc1cccc(NC(=O)c2ncn3c2C(=O)N(C2CC2)C(C)(C(=O)NC2CCCC2)C3)c1C (stereo unspecified)	842 s
Cc1onc(-c2ccccc2)c1C(=O)NC1C(=O)N2C1SC(C)(C)C2C(=O)O (stereo unspecified)	818 s
COc1cc2c(cc1OC)C(C(=O)NCCN1CCOCC1)C(c1cccs1)N(C)C2=O (stereo unspecified)	604 s
CN1C[C@H](C(=O)N[C@]2(C)O[C@@]3(O)[C@@H]4CCCN4C(=O)[C@H](Cc4ccccc4)N3C2=O)CC2c3cccc4[nH]cc(c34)C[C@H]21 (stereo partly specified)	683 s
Cc1ccc(Nc2c(-c3ccc(C)cc3)nc3ccc(Br)cn23)cc1	849 s
CCCC(=O)Nc1ccc(-c2nc(Cn3cccn3)c(C)o2)cc1	759 s
Cc1cccc(N2CCN(C(=O)c3cn4ccc(C)cc4n3)CC2)c1	668 s
